According to paper PMC4381067, “How ‘arm-twisting’ by the inducer triggers activation of the MalT transcription factor, a typical signal transduction ATPase with numerous domains (STAND)” (Nucleic Acids Research, 2015):

How the values were obtained:
HMalT (His-tagged MalT) [1] = molecular target: T1, HMalT (His-tagged MalT) (Escherichia coli, UniProt P06993); assay: limited proteinase K proteolysis protection (arm-sensor hinge), SDS-PAGE quantification, binding isotherm; settings: 50 mM HEPES pH 8.0, 10.1 mM Mg acetate, 0.44 mM ATP, 25°C; no reducing agent; full saturation assumed at 50 mM; read-out: KD (apparent dissociation constant)
T1 construct: full-length, His-tagged; purified on Ni2+ resin then Superdex 200; monomeric in resting form, multimerizes with maltotriose and ATP
T1 sequence (P06993 1-901): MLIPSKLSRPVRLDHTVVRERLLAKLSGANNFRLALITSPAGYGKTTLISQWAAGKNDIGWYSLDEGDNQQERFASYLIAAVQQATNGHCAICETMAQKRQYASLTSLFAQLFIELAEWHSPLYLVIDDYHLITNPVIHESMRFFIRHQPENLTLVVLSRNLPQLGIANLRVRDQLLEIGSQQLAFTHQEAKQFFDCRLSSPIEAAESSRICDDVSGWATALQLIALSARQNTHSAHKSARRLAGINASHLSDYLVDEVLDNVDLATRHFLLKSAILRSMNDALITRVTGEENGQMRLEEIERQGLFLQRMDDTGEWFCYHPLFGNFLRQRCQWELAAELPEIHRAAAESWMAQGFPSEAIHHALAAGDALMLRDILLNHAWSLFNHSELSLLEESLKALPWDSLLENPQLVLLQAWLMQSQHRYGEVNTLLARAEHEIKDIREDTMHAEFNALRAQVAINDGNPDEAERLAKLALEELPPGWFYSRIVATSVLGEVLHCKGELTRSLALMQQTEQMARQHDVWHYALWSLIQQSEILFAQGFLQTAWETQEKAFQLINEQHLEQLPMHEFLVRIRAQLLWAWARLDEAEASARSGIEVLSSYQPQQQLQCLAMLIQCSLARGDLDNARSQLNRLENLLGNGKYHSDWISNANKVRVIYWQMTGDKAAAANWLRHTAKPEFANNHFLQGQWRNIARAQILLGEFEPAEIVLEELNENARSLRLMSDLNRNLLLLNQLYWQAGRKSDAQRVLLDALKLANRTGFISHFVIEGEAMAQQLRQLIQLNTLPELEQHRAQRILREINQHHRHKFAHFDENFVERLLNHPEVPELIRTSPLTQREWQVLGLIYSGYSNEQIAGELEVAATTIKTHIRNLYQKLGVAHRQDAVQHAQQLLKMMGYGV

HMalT (His-tagged MalT) [2] = molecular target: T2, HMalT (His-tagged MalT) (Escherichia coli, UniProt P06993, Q70C/E395C); assay: as above; settings: 50 mM HEPES pH 8.0, 10.1 mM Mg acetate, 0.44 mM ATP, 25°C; no reducing agent: oxidized form, C70-C395 disulfide locks NOD closed; full saturation assumed at 50 mM; read-out: KD (apparent dissociation constant)
T2 construct: full-length, His-tagged; purified on Ni2+ resin then Superdex 200; monomeric in resting form, multimerizes with maltotriose and ATP
T2 sequence (P06993 whole entry Q70C/E395C): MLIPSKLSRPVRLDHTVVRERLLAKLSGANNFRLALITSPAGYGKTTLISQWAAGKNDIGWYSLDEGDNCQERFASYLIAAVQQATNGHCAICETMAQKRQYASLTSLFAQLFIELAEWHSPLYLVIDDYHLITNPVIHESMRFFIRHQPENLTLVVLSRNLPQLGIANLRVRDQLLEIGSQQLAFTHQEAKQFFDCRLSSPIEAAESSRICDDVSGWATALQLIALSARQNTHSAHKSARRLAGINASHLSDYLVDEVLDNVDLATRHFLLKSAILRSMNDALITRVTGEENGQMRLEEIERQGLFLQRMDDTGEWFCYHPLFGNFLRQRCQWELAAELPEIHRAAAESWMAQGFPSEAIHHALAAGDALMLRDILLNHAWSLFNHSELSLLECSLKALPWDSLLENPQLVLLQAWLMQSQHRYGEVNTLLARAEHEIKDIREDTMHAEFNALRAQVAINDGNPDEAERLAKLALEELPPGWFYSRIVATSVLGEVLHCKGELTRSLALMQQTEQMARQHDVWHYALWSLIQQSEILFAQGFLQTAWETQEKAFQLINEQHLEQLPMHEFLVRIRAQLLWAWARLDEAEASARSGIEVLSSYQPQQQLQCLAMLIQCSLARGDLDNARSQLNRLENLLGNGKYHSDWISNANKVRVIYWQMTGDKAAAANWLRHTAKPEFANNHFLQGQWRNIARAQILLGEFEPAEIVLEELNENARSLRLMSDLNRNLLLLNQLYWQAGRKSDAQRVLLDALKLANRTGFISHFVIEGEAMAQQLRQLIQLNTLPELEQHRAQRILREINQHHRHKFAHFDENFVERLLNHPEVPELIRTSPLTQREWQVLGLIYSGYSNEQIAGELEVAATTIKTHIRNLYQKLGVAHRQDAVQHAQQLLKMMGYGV

[3] = molecular target: T3, HMalT^336-806 (arm-sensor polypeptide) (Escherichia coli, UniProt P06993); assay: intrinsic tryptophan fluorescence titration, quadratic fit; format: binding; settings: 20 mM Tris-HCl pH 8.0, 0.2 M KCl, 20°C; 1 μM protein; excitation 295 nm, emission 323 nm
T3 construct: gene malT; arm-sensor fragment, residues 336-806, His-tagged; purified on Ni2+ resin then Superdex 200
T3 sequence (P06993 336-806): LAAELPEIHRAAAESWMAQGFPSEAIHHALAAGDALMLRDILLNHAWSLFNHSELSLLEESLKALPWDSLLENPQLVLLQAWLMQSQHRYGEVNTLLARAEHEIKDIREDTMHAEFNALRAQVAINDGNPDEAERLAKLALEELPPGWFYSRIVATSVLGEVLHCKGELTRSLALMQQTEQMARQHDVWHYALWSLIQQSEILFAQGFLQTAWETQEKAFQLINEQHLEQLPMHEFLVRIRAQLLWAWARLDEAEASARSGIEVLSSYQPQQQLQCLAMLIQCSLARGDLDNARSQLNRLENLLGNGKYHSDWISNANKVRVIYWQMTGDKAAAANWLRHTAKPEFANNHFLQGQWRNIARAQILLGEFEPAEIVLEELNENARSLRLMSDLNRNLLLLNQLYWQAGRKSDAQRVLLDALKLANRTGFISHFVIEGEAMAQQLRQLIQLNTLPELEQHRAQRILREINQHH

HMalT (His-tagged MalT) [4] = molecular target: T1, HMalT (His-tagged MalT); assay: filter-binding assay, dissociation of [α-32P]ADP complex chased by cold ADP; settings: labelled compound; resting form, no maltotriose; buffer B pH 8.0, 10 mM Mg acetate, 25°C; 1 mM cold ADP chase
HMalT (His-tagged MalT) [5] = molecular target: T2, HMalT (His-tagged MalT); assay: as above; settings: labelled compound; oxidized form (C70-C395 disulfide), no DTT, with or without 20 mM maltotriose; buffer B pH 8.0, 10 mM Mg acetate, 25°C; 1 mM cold ADP chase

Row | Kd (HMalT (His-tagged MalT) [1]) | Kd (HMalT (His-tagged MalT) [2]) | Kd [3] | t1/2 (HMalT (His-tagged MalT) [4]) | t1/2 (HMalT (His-tagged MalT) [5]) | Compound
1 | 131 ± 12 µM | 2600 ± 500 µM | 2.7 ± 1.2 µM |  |  | OC[C@H]1O[C@H](O[C@H]2[C@H](O)[C@@H](O)[C@@H](O[C@H]3[C@H](O)[C@@H](O)C(O)O[C@@H]3CO)O[C@@H]2CO)[C@H](O)[C@@H](O)[C@@H]1O (some centres unmarked) [maltotriose]
2 |  |  |  | 1.98 ± 0.183 h | > 8.33 h | Nc1ncnc2c1ncn2[C@@H]1O[C@H](COP(=O)(O)OP(=O)(O)O)[C@@H](O)[C@H]1O [ADP]
